According to publication PMC4594923, “Food Polyphenols Fail to Cause a Biologically Relevant Reduction of COX-2 Activity” (PLoS ONE, 2015):
Entries after “also recorded” stand apart in the source; their conditions may differ. Marks after values point to notes of the source that are not given here.

Legend:
[1] = biological target: T1, COX–2 (Homo sapiens, UniProt P35354); assay: cell-free COX–2 enzyme assay (PGE2 formation, LC-MS); format: biochemical
T1 sequence (P35354 18-604): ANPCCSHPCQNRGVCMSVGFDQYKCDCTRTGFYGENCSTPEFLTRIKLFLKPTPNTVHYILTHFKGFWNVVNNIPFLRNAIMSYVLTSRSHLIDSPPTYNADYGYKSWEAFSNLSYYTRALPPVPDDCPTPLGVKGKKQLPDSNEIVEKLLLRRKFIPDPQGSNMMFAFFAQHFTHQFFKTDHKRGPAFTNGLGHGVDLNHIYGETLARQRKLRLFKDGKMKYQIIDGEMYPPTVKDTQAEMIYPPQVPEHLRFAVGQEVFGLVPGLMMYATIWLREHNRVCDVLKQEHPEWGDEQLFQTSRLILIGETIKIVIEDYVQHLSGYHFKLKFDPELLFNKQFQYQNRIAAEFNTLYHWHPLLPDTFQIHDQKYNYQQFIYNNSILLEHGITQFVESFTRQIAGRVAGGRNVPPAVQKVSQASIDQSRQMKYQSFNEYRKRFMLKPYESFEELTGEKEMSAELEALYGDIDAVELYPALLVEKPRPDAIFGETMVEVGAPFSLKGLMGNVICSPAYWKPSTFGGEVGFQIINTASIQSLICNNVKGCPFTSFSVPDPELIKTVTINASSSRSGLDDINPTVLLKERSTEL
Experimental: (§1) The in vitro assays were performed as described [6, 16, 18] and COX metabolites were quantified by LC-MS [18].
(§2) Primary human monocytes were freshly isolated from human blood. Blood was collected from healthy human subjects after written informed consent was obtained. […] After 24 h, the supernatant was sampled for LC-MS and cells were collected for the COX–2 expression analysis by Western Blotting.
(§3) GraphPad Prism 5.0 (GraphPad Software, San Diego, USA) was used for data analysis, the fitting of dose response curves and calculation of the IC50 values. Statistical differences were determined by Dunnetts test (LPS vs. other groups).

[2] = biological target: T1, COX–2; assay: PGE2 formation in HCA–7 cells (24 h, LC-MS); format: cell-based
Experimental: as §1
HCA–7 cells were incubated with sub-cytotoxic concentrations of the polyphenols dissolved in Tris buffered DMEM medium. Cytotoxicity of the polyphenols was evaluated by the lactate dehydrogenase leakage test (Cyto-Tox-ONE, Promega Mannheim, Germany). After 24 h the supernatant was collected for LC-MS analysis and the cells were harvested to analyze the COX–2 expression by Western Blotting.
After 24 h, the supernatant was sampled for LC-MS and cells were collected for the COX–2 expression analysis by Western Blotting.
as §3

[3] = system: arachidonic acid (AA) cascade; assay: plasma oxylipin/PG levels in LPS induced sepsis in mice; format: in vivo, C57BL/6N mice;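 also: male C57BL/6N mice given LPS, plasma oxylipins quantified by LC-MS after solid-phase extraction, pretreatment or vehicle given intraperitoneally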
Text: Twelve week old male C57BL/6N mice (Charles River, Sulzfeld, Germany) were used for all experiments. C57BL/6 male mice (H2^b, 11–13 weeks of age) were obtained from Charles River (Sulzfeld, Germany). Animals were cared for in accordance with the institution’s guidelines for experimental animals and with the guidelines of the American Physiological Society. […] Mice were monitored closely and if they appeared compromised (i.e. inactivity, no intake of food or water) after compound or LPS injection the experiment was terminated.
Oxylipin levels were analyzed in plasma and tissues by LC-MS following SPE extraction of 200 μl plasma or tissue homogenate (50 mg) on Chromabond C18 ec cartridges (Machery-Nagel, Düren, Germany) [19].
as §3

[4] = clinical chemistry in plasma (urea, creatinine, AST, ALT, LDH) in LPS induced sepsis in mice; format: in vivo, C57BL/6N mice; conditions: compound i. p. 100 mg/kg bw 2 h before LPS, 24 h after LPS
[5] = biological target: T2, ovine recombinant COX–1 (Ovis aries, UniProt P05979); assay: cell-free COX–1 enzyme assay (PGE2 formation, LC-MS); format: biochemical; design: purchased Cayman Chemicals/ Biomol, Hamburg, Germany
T2 sequence (P05979 25-600): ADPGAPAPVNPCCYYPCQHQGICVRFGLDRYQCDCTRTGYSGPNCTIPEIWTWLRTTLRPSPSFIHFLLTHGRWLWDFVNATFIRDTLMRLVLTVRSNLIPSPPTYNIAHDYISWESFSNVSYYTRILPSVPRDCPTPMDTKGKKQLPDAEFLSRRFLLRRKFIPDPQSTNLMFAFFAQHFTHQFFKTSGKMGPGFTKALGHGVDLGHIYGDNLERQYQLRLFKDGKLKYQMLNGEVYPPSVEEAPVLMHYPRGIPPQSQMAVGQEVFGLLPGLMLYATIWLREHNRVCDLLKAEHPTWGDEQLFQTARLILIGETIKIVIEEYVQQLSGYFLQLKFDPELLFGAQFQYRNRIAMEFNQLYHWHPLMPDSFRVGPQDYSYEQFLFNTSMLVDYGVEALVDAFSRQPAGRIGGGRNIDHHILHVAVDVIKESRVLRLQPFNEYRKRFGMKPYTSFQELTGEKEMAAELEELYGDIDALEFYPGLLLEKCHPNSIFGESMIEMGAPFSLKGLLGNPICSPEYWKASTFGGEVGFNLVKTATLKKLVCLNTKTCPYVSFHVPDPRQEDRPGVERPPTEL
Experimental: as §1, §2, §3

[6] = mice, compound i. p. 100 mg/kg bw 2 h before LPS (10 mg/kg bw i. p.), 24 h after LPS, vs. LPS group
[7] = plasma 24 h after LPS treatment, LPS +, mean

Structure (SMILES): Oc1ccc(/C=C/c2cc(O)cc3c2[C@@H](c2cc(O)cc(O)c2)[C@H](c2ccc(O)cc2)O3)cc1 [ε-Viniferin, ε-viniferin]
- effect on COX–2 dependent PGE2 formation, cell-free enzyme assay [1]: dose-dependently decreased; also recorded: inhibited
- IC50 ([1]; calculated based on PGE2, n = 3, read-out: IC50 (95% CI), COX–2 enzyme assay): 11 µM
- IC50 (95% CI), HCA-7 cell line ([2]; calculated based on PGE2, n = 3, 24 h): no effect (up to 1 μM)
- changes of PGE2 formation in HCA–7 cells ([2]; non-cytotoxic concentrations, 24 h): no or only slight
- plasma 8-iPF2α level (non-enzymatically formed autoxidation marker) [3, 6]: high levels
- plasma 13,14-dihydro-15-keto-PGE1 level [3, 6]: high levels
- plasma 13,14-dihydro-15-keto-PGF2α level [3, 6]: high levels
- plasma PGF2α level [3, 6]: high levels
- 1a,1b-dihomo-PGF2α concentration in plasma [3, 7]: 0.42^† nM
- 4,5-DiHDPE concentration in plasma [3, 7]: 23^‡ nM
- 4-HDHA concentration in plasma [3, 7]: 1.7 nM
- 5(6)-EpETrE concentration in plasma [3, 7]: 11 nM
- 5,6-DiHETrE concentration in plasma [3, 7]: 1.3^‡ nM
- 5-HEPE concentration in plasma [3, 7]: 0.25^* nM
- 5-HETE concentration in plasma [3, 7]: 2.8 nM
- 5-iPF2α concentration in plasma [3, 7]: 0.91^‡ nM
- 5-oxo-ETE concentration in plasma [3, 7]: 4.7 nM
- 6-keto-PGF1α concentration in plasma [3, 7]: 2.8 nM
- 7,8-DiHDPE concentration in plasma [3, 7]: 1.1 nM
- 7-HDHA concentration in plasma [3, 7]: 0.55 nM
- 8(9)-EpETrE concentration in plasma [3, 7]: 2.5 nM
- 8,9-DiHETrE concentration in plasma [3, 7]: 2.5 nM
- 8-HDHA concentration in plasma [3, 7]: 3.8 nM
- 8-HEPE concentration in plasma [3, 7]: 1.2^† nM
- 8-HETE concentration in plasma [3, 7]: 12^* nM
- 8-iPF2a concentration in plasma [3, 7]: 0.30^* nM
- 9(10)-EpODE concentration in plasma [3, 7]: 6.5 nM
- 9(10)-EpOME concentration in plasma [3, 7]: 61 nM
- 9(10)-Epoxystearic acid concentration in plasma [3, 7]: 37 nM
- 9,10,13-TriHOME concentration in plasma [3, 7]: 2.2 nM
- 9,10-DiHODE concentration in plasma [3, 7]: 4.5 nM
- 9,10-DiHOME concentration in plasma [3, 7]: 30 nM
- 9,10-Dihydroxystearic acid concentration in plasma [3, 7]: 10 nM
- 9,12,13-TriHOME concentration in plasma [3, 7]: 17 nM
- 9-HODE concentration in plasma [3, 7]: 210 nM
- 9-HOTrE concentration in plasma [3, 7]: 12 nM
- 9-oxo-ODE concentration in plasma [3, 7]: 38 nM
- 10(11)-EpDPE concentration in plasma [3, 7]: 3.9 nM
- 10,11-DiHDPE concentration in plasma [3, 7]: 0.62^* nM
- 10-HDHA concentration in plasma [3, 7]: 27^† nM
- 11(12)-EpETrE concentration in plasma [3, 7]: 2.6 nM
- 11,12-DiHETE concentration in plasma [3, 7]: 0.38^‡ nM
- 11,12-DiHETrE concentration in plasma [3, 7]: 2.0 nM
- 11-HDHA concentration in plasma [3, 7]: 0.91 nM
- 11-HETE concentration in plasma [3, 7]: 3.8^* nM
- 12(13)-EpODE concentration in plasma [3, 7]: 3.3 nM
- 12(13)-EpOME concentration in plasma [3, 7]: 48 nM
- 12,13-DiHODE concentration in plasma [3, 7]: 2.8 nM
- 12,13-DiHOME concentration in plasma [3, 7]: 110^* nM
- 12-HEPE concentration in plasma [3, 7]: 239^† nM
- 12-HETE concentration in plasma [3, 7]: 1700^† nM
- 13(14)-EpDPE concentration in plasma [3, 7]: 2.9 nM
- 13,14-DiHDPE concentration in plasma [3, 7]: 0.55^* nM
- 13,14-dihydro-15-keto-PGE1 concentration in plasma [3, 7]: 0.34^† nM
- 13,14dihydro-15-keto-PGF2α concentration in plasma [3, 7]: 2.1^‡ nM
- 13-HDHA concentration in plasma [3, 7]: 3.9^* nM
- 13-HODE concentration in plasma [3, 7]: 540 nM
- 13-HOTrE concentration in plasma [3, 7]: 61 nM
- 13-oxo-ODE concentration in plasma [3, 7]: 8.3 nM
- 14(15)-EpETE concentration in plasma [3, 7]: 0.18^* nM
- 14(15)-EpETrE concentration in plasma [3, 7]: 2.4 nM
- 14,15-DiHETE concentration in plasma [3, 7]: 0.36 nM
- 14,15-DiHETrE concentration in plasma [3, 7]: 2.5 nM
- 14-HDHA concentration in plasma [3, 7]: 800^† nM
- 15(16)-EpODE concentration in plasma [3, 7]: 2.9 nM
- 15(S)-HETrE concentration in plasma [3, 7]: 5.7^‡ nM
- 15,16-DiHODE concentration in plasma [3, 7]: 53 nM
- 15-HEPE concentration in plasma [3, 7]: 1.5^‡ nM
- 15-HETE concentration in plasma [3, 7]: 7.9^† nM
- 15-oxo-ETE concentration in plasma [3, 7]: 0.34 nM
- 16(17)-EpDPE concentration in plasma [3, 7]: 2.8 nM
- 16,17-DiHDPE concentration in plasma [3, 7]: 1.1^† nM
- 16-HDHA concentration in plasma [3, 7]: 1.1 nM
- 17(18)-EpETE concentration in plasma [3, 7]: 1.1 nM
- 17,18-DiHETE concentration in plasma [3, 7]: 1.8 nM
- 17-HDHA concentration in plasma [3, 7]: 39^† nM
- 18-HEPE concentration in plasma [3, 7]: 0.81 nM
- 19(20)-EpDPE concentration in plasma [3, 7]: 13 nM
- 19,20-DiHDPE concentration in plasma [3, 7]: 14 nM
- 20-HDHA concentration in plasma [3, 7]: 3.6 nM
- 20-HEPE concentration in plasma [3, 7]: 5.7^† nM
- 20-HETE concentration in plasma [3, 7]: 2.7^‡ nM
- EKODE concentration in plasma [3, 7]: 16 nM
- PGD2 concentration in plasma [3, 7]: 0.90 nM
- PGE2 concentration in plasma [3, 7]: 1.6 nM
- PGF1α concentration in plasma [3, 7]: 0.25^‡ nM
- PGF2α concentration in plasma [3, 7]: 0.77^‡ nM
- TXB2 concentration in plasma [3, 7]: 4.2 nM
- plasma ALT activity [4]: elevated; also recorded: moderate elevation
- plasma AST activity [4]: elevated; also recorded: moderate elevation
- plasma LDH activity [4]: moderate elevation
- plasma creatinine level [4]: elevation
- plasma urea level [4]: elevation
- effect on COX–1 dependent PGE2 formation, cell-free enzyme assay [5]: dose-dependently decreased; also recorded: inhibited
- IC50 ([5]; calculated based on PGE2, n = 3, read-out: IC50 (95% CI), COX–1 enzyme assay): 1.6 µM
